According to patent publication US20090156517A1, “STABLE PHARMACEUTICAL COMPOSITIONS OF AMINOGLYCOSIDE ANTIBIOTICS, ION-CHELATING AGENTS, AND BUFFERS” (priority 2006, published 2009):

Assay: Amounts of antibiotic components in the solution over time (reverse-phase LC/UV for β-lactams and β-lactamase inhibitors, HPLC/evaporation-light-scattering for aminoglycosides)
Assay type: physicochemical
Procedure: The amounts of β-lactam antibiotics and β-lactamase inhibitor were determined using C18 reverse-phase LC and UV-VIS detector (Tianjin […] Co., Ltd., analysis method No. HM-K-03). The content of aminoglycoside antibiotics was measured using reverse-phase HPLC and evaporation-light-scattering detector (Tianjin […] Co., Ltd., analysis method No. HM-K-08). […] The relative amount of each antibiotic component in the composition at each time point was expressed as peak area ratio with respect to the corresponding peak area of an external standard.

[1] = Example 5 solution (cefoperazone sodium, sulbactam sodium, gentamicin, disodium EDTA, sodium citrate pH 6.75), room temperature, 0 h
[2] = Example 5 solution (cefoperazone sodium, sulbactam sodium, gentamicin, disodium EDTA, sodium citrate pH 6.75), room temperature, 1 h
[3] = Example 5 solution (cefoperazone sodium, sulbactam sodium, gentamicin, disodium EDTA, sodium citrate pH 6.75), room temperature, 2 h
[4] = Example 5 solution (cefoperazone sodium, sulbactam sodium, gentamicin, disodium EDTA, sodium citrate pH 6.75), room temperature, 4 h

Compound: CC1(C)S[C@@H]2[C@H](NC(=O)[C@H](NC(=O)N3CCN(S(C)(=O)=O)C3=O)c3ccccc3)C(=O)N2[C@H]1C(=O)O [Mezlocillin sodium, mezlocillin sodium]
- Amount of component, percentage of amount at initial time (Example 9: freeze-dried amikacin sulfate/disodium EDTA/citrate pH 6.5 powder stored 7 days at 0° C., redissolved, mezlocillin sodium added, 0 h): 94.68%
- Amount of component, percentage of amount at initial time (Example 9: freeze-dried amikacin sulfate/disodium EDTA/citrate pH 6.5 powder stored 7 days at 0° C., redissolved, mezlocillin sodium added, 1 h): 95.90%
- Amount of component, percentage of amount at initial time (Example 9: freeze-dried amikacin sulfate/disodium EDTA/citrate pH 6.5 powder stored 7 days at 0° C., redissolved, mezlocillin sodium added, 2 h): 71.70%
- Amount of component, percentage of amount at initial time (Example 9: freeze-dried amikacin sulfate/disodium EDTA/citrate pH 6.5 powder stored 7 days at 0° C., redissolved, mezlocillin sodium added, 4 h): 91.78%
- Amount of component, percentage of amount at initial time (Example 9: freeze-dried amikacin sulfate/disodium EDTA/citrate pH 6.5 powder stored 7 days at 0° C., redissolved, mezlocillin sodium added, 6 h): 93.08%
- Amount of component, percentage of amount at initial time (Example 9: freeze-dried amikacin sulfate/disodium EDTA/citrate pH 6.5 powder stored 7 days at 0° C., redissolved, mezlocillin sodium added, 8 h): 97.69%

Compound: NCC[C@H](O)C(=O)N[C@@H]1C[C@H](N)[C@@H](O[C@H]2O[C@H](CN)[C@@H](O)[C@H](O)[C@H]2O)[C@H](O)[C@H]1O[C@H]1O[C@H](CO)[C@@H](O)[C@H](N)[C@H]1O [Amikacin, amikacin]
- Amount of component, percentage of amount at initial time (Example 9: amikacin sulfate/disodium EDTA/citrate pH 6.5 solution with fructose stored 7 days at minus 20° C., thawed, cefodizime sodium added, 0 h): 96.88%
- Amount of component, percentage of amount at initial time (Example 9: amikacin sulfate/disodium EDTA/citrate pH 6.5 solution with fructose stored 7 days at minus 20° C., thawed, cefodizime sodium added, 1 h): 97.78%
- Amount of component, percentage of amount at initial time (Example 9: amikacin sulfate/disodium EDTA/citrate pH 6.5 solution with fructose stored 7 days at minus 20° C., thawed, cefodizime sodium added, 2 h): 96.14%
- Amount of component, percentage of amount at initial time (Example 9: amikacin sulfate/disodium EDTA/citrate pH 6.5 solution with fructose stored 7 days at minus 20° C., thawed, cefodizime sodium added, 4 h): 96.88%
- Amount of component, percentage of amount at initial time (Example 9: amikacin sulfate/disodium EDTA/citrate pH 6.5 solution with fructose stored 7 days at minus 20° C., thawed, cefodizime sodium added, 6 h): 98.34%
- Amount of component, percentage of amount at initial time (Example 9: amikacin sulfate/disodium EDTA/citrate pH 6.5 solution with fructose stored 7 days at minus 20° C., thawed, cefodizime sodium added, 8 h): 98.11%
- Amount of component, percentage of amount at initial time (Example 12: thawed solution from Example 10, pH 6.0, amikacin sulfate added, no EDTA, 0 h): 86.05%
- Amount of component, percentage of amount at initial time (Example 12: thawed solution from Example 10, pH 6.0, amikacin sulfate added, no EDTA, 1 h): 83.57%
- Amount of component, percentage of amount at initial time (Example 12: thawed solution from Example 10, pH 6.0, amikacin sulfate added, no EDTA, 2 h): 81.55%
- Amount of component, percentage of amount at initial time (Example 12: thawed solution from Example 10, pH 6.0, amikacin sulfate added, no EDTA, 4 h): 80.55%
- Amount of component, percentage of amount at initial time (Example 12: thawed solution from Example 10, pH 6.0, amikacin sulfate added, no EDTA, 6 h): 85.75%
- Amount of component, percentage of amount at initial time (Example 12: thawed solution from Example 10, pH 6.0, amikacin sulfate added, no EDTA, 8 h): 83.83%

Compound: CC1(C)[C@H](C(=O)O)N2C(=O)C[C@H]2S1(=O)=O [Sulbactam sodium, sulbactam sodium]
- Amount of component, percentage of amount at initial time (Example 4 solution (cefoperazone sodium, sulbactam sodium, gentamicin, sodium citrate pH 6.75, no EDTA), room temperature, 0 h): 101.4%
- Amount of component, percentage of amount at initial time (Example 4 solution (cefoperazone sodium, sulbactam sodium, gentamicin, sodium citrate pH 6.75, no EDTA), room temperature, 1 h): 101.4%
- Amount of component, percentage of amount at initial time (Example 4 solution (cefoperazone sodium, sulbactam sodium, gentamicin, sodium citrate pH 6.75, no EDTA), room temperature, 2 h): 101.5%
- Amount of component, percentage of amount at initial time (Example 4 solution (cefoperazone sodium, sulbactam sodium, gentamicin, sodium citrate pH 6.75, no EDTA), room temperature, 4 h): 109.7%
- Amount of component, percentage of amount at initial time (Example 4 solution (cefoperazone sodium, sulbactam sodium, gentamicin, sodium citrate pH 6.75, no EDTA), room temperature, 6 h): 103.2%
- Amount of component, percentage of amount at initial time [1]: 101.4%
- Amount of component, percentage of amount at initial time [2]: 101.4%
- Amount of component, percentage of amount at initial time [3]: 101.5%
- Amount of component, percentage of amount at initial time [4]: 109.7%
- Amount of component, percentage of amount at initial time (Example 5 solution (cefoperazone sodium, sulbactam sodium, gentamicin, disodium EDTA, sodium citrate pH 6.75), room temperature, 6 h): 103.2%
- Amount of component, percentage of amount at initial time (Example 6 solution (cefoperazone sodium, sulbactam sodium, etimicin sulfate, disodium EDTA, sodium citrate pH 6.5), room temperature, 0 h): 99.62%
- Amount of component, percentage of amount at initial time (Example 6 solution (cefoperazone sodium, sulbactam sodium, etimicin sulfate, disodium EDTA, sodium citrate pH 6.5), room temperature, 1 h): 100.4%
- Amount of component, percentage of amount at initial time (Example 6 solution (cefoperazone sodium, sulbactam sodium, etimicin sulfate, disodium EDTA, sodium citrate pH 6.5), room temperature, 2 h): 100.2%
- Amount of component, percentage of amount at initial time (Example 6 solution (cefoperazone sodium, sulbactam sodium, etimicin sulfate, disodium EDTA, sodium citrate pH 6.5), room temperature, 4 h): 100.2%
- Amount of component, percentage of amount at initial time (Example 7 solution (ceftriaxone sodium, sulbactam sodium, etimicin sulfate, disodium EDTA, sodium citrate pH 6.5), room temperature, 0 h): 96.84%
- Amount of component, percentage of amount at initial time (Example 7 solution (ceftriaxone sodium, sulbactam sodium, etimicin sulfate, disodium EDTA, sodium citrate pH 6.5), room temperature, 1 h): 94.43%
- Amount of component, percentage of amount at initial time (Example 7 solution (ceftriaxone sodium, sulbactam sodium, etimicin sulfate, disodium EDTA, sodium citrate pH 6.5), room temperature, 2 h): 93.35%
- Amount of component, percentage of amount at initial time (Example 7 solution (ceftriaxone sodium, sulbactam sodium, etimicin sulfate, disodium EDTA, sodium citrate pH 6.5), room temperature, 4 h): 93.23%
- Amount of component, percentage of amount at initial time (Example 7 solution (ceftriaxone sodium, sulbactam sodium, etimicin sulfate, disodium EDTA, sodium citrate pH 6.5), room temperature, 6 h): 92.13%
- Amount of component, percentage of amount at initial time (Example 7 solution (ceftriaxone sodium, sulbactam sodium, etimicin sulfate, disodium EDTA, sodium citrate pH 6.5), room temperature, 8 h): 93.38%
- Amount of component, percentage of amount at initial time (Example 10: piperacillin sodium/sulbactam sodium solution cryopreserved 7 days, thawed, pH 6.0, etimicin sulfate added, no EDTA, 0 h): 94.1%
- Amount of component, percentage of amount at initial time (Example 10: piperacillin sodium/sulbactam sodium solution cryopreserved 7 days, thawed, pH 6.0, etimicin sulfate added, no EDTA, 1 h): 97.4%
- Amount of component, percentage of amount at initial time (Example 10: piperacillin sodium/sulbactam sodium solution cryopreserved 7 days, thawed, pH 6.0, etimicin sulfate added, no EDTA, 2 h): 96.4%
- Amount of component, percentage of amount at initial time (Example 10: piperacillin sodium/sulbactam sodium solution cryopreserved 7 days, thawed, pH 6.0, etimicin sulfate added, no EDTA, 4 h): 97.7%
- Amount of component, percentage of amount at initial time (Example 10: piperacillin sodium/sulbactam sodium solution cryopreserved 7 days, thawed, pH 6.0, etimicin sulfate added, no EDTA, 6 h): 96.9%
- Amount of component, percentage of amount at initial time (Example 10: piperacillin sodium/sulbactam sodium solution cryopreserved 7 days, thawed, pH 6.0, etimicin sulfate added, no EDTA, 8 h): 97.1%

Compound: C[C@]1(Cn2ccnn2)[C@H](C(=O)O)N2C(=O)C[C@H]2S1(=O)=O [Tazobactam sodium, tazobactam sodium]
- Amount of component, percentage of amount at initial time (Example 8 solution (ceftriaxone sodium, tazobactam sodium, gentamicin sulfate, sodium citrate pH 6.75), room temperature, 0 h): 102.2%
- Amount of component, percentage of amount at initial time (Example 8 solution (ceftriaxone sodium, tazobactam sodium, gentamicin sulfate, sodium citrate pH 6.75), room temperature, 1 h): 97.53%
- Amount of component, percentage of amount at initial time (Example 8 solution (ceftriaxone sodium, tazobactam sodium, gentamicin sulfate, sodium citrate pH 6.75), room temperature, 2 h): 94.16%
- Amount of component, percentage of amount at initial time (Example 8 solution (ceftriaxone sodium, tazobactam sodium, gentamicin sulfate, sodium citrate pH 6.75), room temperature, 4 h): 94.58%
- Amount of component, percentage of amount at initial time (Example 8 solution (ceftriaxone sodium, tazobactam sodium, gentamicin sulfate, sodium citrate pH 6.75), room temperature, 6 h): 95.45%
- Amount of component, percentage of amount at initial time (Example 8 solution (ceftriaxone sodium, tazobactam sodium, gentamicin sulfate, sodium citrate pH 6.75), room temperature, 8 h): 94.44%
- Amount of component, percentage of amount at initial time (Example 14: cefoperazone sodium/tazobactam sodium solution pH 6.75, disodium EDTA and amikacin sulfate added, room temperature, 0 h): 98.5%
- Amount of component, percentage of amount at initial time (Example 14: cefoperazone sodium/tazobactam sodium solution pH 6.75, disodium EDTA and amikacin sulfate added, room temperature, 1 h): 98.7%
- Amount of component, percentage of amount at initial time (Example 14: cefoperazone sodium/tazobactam sodium solution pH 6.75, disodium EDTA and amikacin sulfate added, room temperature, 2 h): 98.2%
- Amount of component, percentage of amount at initial time (Example 14: cefoperazone sodium/tazobactam sodium solution pH 6.75, disodium EDTA and amikacin sulfate added, room temperature, 4 h): 95.6%
- Amount of component, percentage of amount at initial time (Example 14: cefoperazone sodium/tazobactam sodium solution pH 6.75, disodium EDTA and amikacin sulfate added, room temperature, 6 h): 94.0%
- Amount of component, percentage of amount at initial time (Example 14: cefoperazone sodium/tazobactam sodium solution pH 6.75, disodium EDTA and amikacin sulfate added, room temperature, 8 h): 96.1%

Compound: gentamicin
- Amount of component, percentage of amount at initial time [1]: 102.1%
- Amount of component, percentage of amount at initial time [2]: 104.6%
- Amount of component, percentage of amount at initial time [3]: 96.51%
- Amount of component, percentage of amount at initial time [4]: 100.4%
